Like-named read-outs stand apart in the source and are kept apart here.
System: Pyricularia oryzae
Format: in vivo
Settings: rice seedlings cultivar Tai-Nong 67, protective, inoculated next day, assessed after six days

SMILES	Efficacy in % of the untreated control (1 ppm active compound in the spray liquor)	Efficacy in % of the untreated control (16 ppm active compound in the spray liquor)	Efficacy in % of the untreated control (4 ppm active compound in the spray liquor)
O=C(Nc1ccccc1)N(Cc1ccc(Cl)cc1)C1CCCC1 [compound II, 1-(4-chlorobenzyl)-1-cyclopentyl-3-phenylurea]	0%	0%	
CC1CCN(c2c(-c3c(F)cc(F)cc3F)c(Cl)nc3ncnn23)CC1 [compound I, 5-chloro-7-(4-methylpiperidin-1-yl)-6-(2,4,6-trifluorophenyl)-[1,2,4]triazolo[1,5-a]pyrimidine]			31%
